Measured values reported in article PMC5736767, “A Comparison of Drug Transport in Pulmonary Absorption Models: Isolated Perfused rat Lungs, Respiratory Epithelial Cell Lines and Primary Cell Culture” (Pharmaceutical Research, 2017).
Read-outs that look alike come from different tables or passages of the source.

What was measured:
[1] = tested on: isolated perfused rat lungs; test: in vitro
Protocol: (§1) Eight-week old male Wistar rats were obtained from Harlan UK Ltd. (Oxon, Oxfordshire). They were fed with a SDS RM1(E) maintenance diet (Special Diets Services Ltd., Essex). They were maintained at 20–21°C and 45–60% humidity with a 12 h light/dark cycle. All procedures performed on these animals were in accordance with regulations and established guidelines and were reviewed and approved by an Institutional Animal Care and Use Committee or through an ethical review process.
(§2) Rats were sacrificed with a lethal injection of pentobarbital (130 mg/kg body weight). As soon as they were unconscious, rats were secured in a supine position on a board inclined at approximately 45°. A midline incision was made from the neck to the abdomen using a scalpel blade and the rat was exsanguinated by severing the main abdominal vessels. The trachea was exposed and carefully pierced through one wall with a 21 G needle. A 3 cm long cannula made of a polyethylene tubing (PolyE 240, Harvard Apparatus Ltd., Edenbridge, UK) mounted on a blunt 21 G needle was introduced into the trachea. This was securely tied with two suture threads (Silk black braid USP size 4.0, Harvard apparatus Ltd) and a 25 mm Dieffenbach’s bulldog artery clip (Scientific Laboratory Supplies Ltd., Nottingham, UK). The diaphragm was cut open, 0.5 mL of air was administered to the lungs to partly re-inflate them and the rib cage was laterally incised with scissors taking care not to damage the lung tissue.
(§3) After the thymus was removed, the heart was twisted slightly to expose the pulmonary artery and then stretched down using a Halstead’s artery clamp (Scientific Laboratory Supplies). An incision was made and the pulmonary artery was cannulated using a cannula similar to the tracheal one. This was secured with a micro aneurysm clip (Harvard apparatus Ltd). Lungs were perfused using a single pass constant flow rate of 8 mL/min. […] The pericardium was dissected free to allow free efflux of the perfusate and lungs were inflated manually with 1.5 mL air using a 10 mL syringe connected to the intratracheal cannula. As soon as the tissue blanched, the lungs were removed carefully from the chest cavity while maintaining the perfusion and a semi micro Rexaloy clamp (Fisher Scientific, Loughborough, UK) was used to suspend the lungs vertically above a funnel and beaker.
(§4) After isolation, the lungs were allowed to stabilize for 1–2 min. The syringe attached to the intratracheal cannula was then disconnected and 100 μL of the test solutions were instilled into the airways using a Hamilton microsyringe. Lungs were re-inflated with 1.5 mL of air and sampling was performed by collecting the effluent solution dripping from the left atrium at different time intervals for 90 min. Lung viability was assessed by visual inspection for any sign of oedema as well as by the profile of mannitol airway to perfusate transfer.
(§5) The cumulative percentage of drug transferred from the airways to the perfusate in 90 min was calculated as the fraction of the administered dose recovered in the perfusate. […] The apparent first-order absorption rate constant (KaIPL) was calculated as follows: KaIPL=ln2/t1/2abs
(§6) Absorption data were collected using 4 or 5 IPL preparations.

in vitro [2] = details: male, Wistar, rat, pH 7.4
Protocol: as §1, §2, §3, §4, §5, §6

[3] = Table I panel of test compounds; source not stated; cited from earlier work
[4] = Absorptive (A to B) permeability in Calu-3 cell layers; details: human
rat lungs = details: apparent first-order pulmonary absorption rate constant in rats in vivo, cited from earlier work
NHBE cell layers = test: Absorptive (A to B) permeability in normal human bronchial epithelial (NHBE) cell layers; format: in vitro ADME
Protocol: (§7) NHBE were cultured in a cell culture flask using the BEGM bullet kit provided by the supplier until reaching 70–80% confluence. […] After 24 h, cells were cultured at an air interface. Cell layers were used for transport studies after 14 d in culture.

[5] = as above; format: in vitro ADME; details: human, apical to basolateral, 10 μM, pH 7.4, 2 h, mean ± SD (n = 3, n = 18 for mannitol)
Protocol: as §7

[6] = Absorptive (A to B) permeability in 16HBE14o- cell layers; details: human, pH 7.4
in vitro [7] = details: human, pH 7.4
16HBE14o- cell layers = details: pH 7.4
Calu-3 cell layers = test: Absorptive (A to B) permeability in Calu-3 cell layers; details: Calu-3, apical to basolateral, 10 μM, pH 7.4, 2 h; mean ± SEM (n = 6, n = 36 for mannitol)
[8] = apparent first-order absorption rate constant = ln2/t1/2 abs, intratracheal instillation 100 μL, mean ± SD
[9] = male, Wistar, rat, 90 min, pH 7.4
[10] = pH 7.4, Papp, Calu-3, apical to basolateral, 10 μM, pH 7.4, 2 h, mean ± SEM (n = 6, n = 36 for mannitol)

Molecule | Ka in vivo (rat lungs; ref [22]) | % transferred to the perfusate in 90 min [1, 9] | KaIPL ([1]; male, Wistar, rat, pH 7.4) | half-life (in vitro [2]) | Papp at 2 h, 10 μM [5] | Papp at 2 h, 10 μM [4, 10] | Papp at 2 h, 10 μM (in vitro [7]) | further results
COc1ccc(CC(C)NCC(O)c2ccc(O)c(NC=O)c2)cc1 (centres unmarked) [Formoterol] | 0.19 ^(1) min^−1 |  |  |  |  |  |  | KaIPL [1, 8]: 0.023 ± 0.002 min⁻¹; % transferred to the perfusate in 90 min ([1]; cumulative fraction of administered dose recovered in perfusate at 90 min, mean ± SD): 46 ± 7%; half-life (in vitro [2]; 100 μL): 30 ± 2 min; Log P [3]: 1.1; Papp at 2 h, 10 μM ([4]; pH 7.4): 6.4 ± 0.3 ×10⁻⁶ cm/s
CN(C)CCCN1c2ccccc2CCc2ccccc21 [Imipramine] | 0.53 ^(1) min^−1 | 58 ± 9% |  |  |  |  |  | KaIPL [1, 8]: 0.071 ± 0.021 min⁻¹
OC[C@@H](O)[C@@H](O)[C@H](O)[C@H](O)CO [Mannitol] |  | 51 ± 4% | 0.029 ± 0.005 min⁻¹ | 25 ± 5 min | 1.6 ± 0.5 ×10⁻⁶ cm/s | 0.5 ± 0.1 ×10⁻⁶ cm/s |  | Papp (NHBE cell layers): 1.6 ± 0.5 x 10^−6, cm s^−1; Papp at 2 h, 10 μM ([4]; pH 7.4, Papp, Calu-3, as stated in text): 0.48 ± 0.06 ×10⁻⁶ cm/s; Ka in vivo (rat lungs; ref [24]): 0.011 ^(3) min^−1; Papp at 2 h, 10 μM [6]: 3.7 ± 0.5 ×10⁻⁶ cm/s
COCCc1ccc(OCC(O)CNC(C)C)cc1 (centres unmarked) [Metoprolol] |  | 65 ± 4% | 0.260 ± 0.050 min⁻¹ | 3 ± 1 min | 11.3 ± 0.7 ×10⁻⁶ cm/s | 10.3 ×10⁻⁶ cm/s | 24.5 ± 2.5 ×10⁻⁶ cm/s | 
CC(C)NCC(O)COc1cccc2ccccc12 (centres unmarked) [Propranolol] |  | 47 ± 9% | 0.098 ± 0.016 min⁻¹ |  | 16.8 ± 3 ×10⁻⁶ cm/s | 7 ± 0.4 ×10⁻⁶ cm/s | 17.3 ± 0.8 ×10⁻⁶ cm/s | half-life (in vitro [2]; 100 μL): 7 ± 1 min
CC(C)(C)NCC(O)c1cc(O)cc(O)c1 (centres unmarked) [Terbutaline] | 0.06 ^(1) min^−1 | 52 ± 12% | 0.037 ± 0.006 min⁻¹ | 19 ± 3 min | 13.8 ± 0.8 ×10⁻⁶ cm/s | 7.3 ± 0.4 ×10⁻⁶ cm/s | 19.3 ± 2 ×10⁻⁶ cm/s | Log P [3]: 0.1
Dextran 10 K |  |  |  |  |  |  |  | KaIPL [1]: 0.017 ± 0.002 min⁻¹; t1/2 abs ([1]; rat): 41 ± 6 min; Papp (16HBE14o- cell layers): 1 ± 0.1 ×10⁻⁶ cm/s; Papp (NHBE cell layers; apical to basolateral, 10 μM, pH 7.4, 2 h, mean ± SD (n = 3, n = 18 for mannitol)): 0.7 ± 0.1 10^−6 cm/s; Papp (Calu-3 cell layers): 0.2 ± 0.0 10^−6 cm/s; Ka in vivo (rat lungs; ref [23]): 0.00007 ^(2) min^−1
